From US20110014148A1, “Cationic Surfactants Having Improved Properties” (COGNIS IP MANAGEMENT GMBH, priority 2008, published 2011)

Experiments:
algae = format: cell-based
Description: (§1) For the cationic surfactant type 1 from Table 2, the biodegradability and toxicity was determined in accordance with OECD 301 B against algae.

[1] = Biodegradability in accordance with OECD 301 B
Description: as §1

- Biodegradability [1]: not degraded
SMILES: CCCCCCCCCCCCCCCCCCCCCC[N+](C)(C)C.[Cl-] [behentrimonium chloride]
- Toxicity towards algae (algae): < 1 mg/L
